Experimental data: publication PMC9779606, “Synthesis, Structural Characterization and Biological Activity Evaluation of Novel Cu(II) Complexes with 3-(trifluoromethyl)phenylthiourea Derivatives” (International Journal of Molecular Sciences, 2022)

How the values were obtained:
[1] = tested on: S. aureus ATCC 25923; assay: MIC, twofold serial microdilution, standard strains; conditions: S. aureus ATCC 25923, standard strain
[2] = tested on: S. epidermidis 424; assay: MIC, hospital methicillin-resistant strains (MRSE); conditions: hospital MRSE strain S. epidermidis 424
[3] = tested on: S. aureus ATCC 6538; assay: MIC, twofold serial microdilution, standard strains; conditions: S. aureus ATCC 6538, standard strain
[4] = tested on: SW620 (metastatic colon cancer); assay: Cytotoxicity, MTT assay; format: cell-based, human; conditions: 72 h, mean SD
Experimental: (§1) MTT assay was performed as previously described. Experiments were repeated three times. […] Decreased relative MTT level means decreased cell viability.

[5] = tested on: PC3 (metastatic prostate cancer); assay: Cytotoxicity, MTT assay; format: cell-based, human; conditions: 72 h, mean SD
Experimental: as §1

[6] = tested on: SW480 (primary colon cancer); assay: Cytotoxicity, MTT assay; format: cell-based, human; conditions: 72 h, mean SD
Experimental: as §1

[7] = tested on: S. epidermidis 515; assay: MIC, hospital methicillin-resistant strains (MRSE); conditions: hospital MRSE strain S. epidermidis 515
[8] = tested on: S. aureus 514; assay: MIC, hospital methicillin-resistant strains (MRSA); conditions: hospital MRSA strain S. aureus 514
[9] = tested on: S. aureus 497; assay: MIC, hospital methicillin-resistant strains (MRSA); conditions: hospital MRSA strain S. aureus 497
[10] = tested on: E. coli ATCC 25922; assay: MIC, twofold serial microdilution, standard strains; conditions: E. coli ATCC 25922, standard strain
[11] = tested on: S. epidermidis 433; assay: MIC, hospital methicillin-resistant strains (MRSE); conditions: hospital MRSE strain S. epidermidis 433
[12] = tested on: S. aureus 495; assay: MIC, hospital methicillin-resistant strains (MRSA); conditions: hospital MRSA strain S. aureus 495
[13] = tested on: S. aureus 498; assay: MIC, hospital methicillin-resistant strains (MRSA); conditions: hospital MRSA strain S. aureus 498
[14] = tested on: S. epidermidis 437; assay: MIC, hospital methicillin-resistant strains (MRSE); conditions: hospital MRSE strain S. epidermidis 437
[15] = tested on: S. epidermidis 431; assay: MIC, hospital methicillin-resistant strains (MRSE); conditions: hospital MRSE strain S. epidermidis 431
[16] = tested on: S. epidermidis 469; assay: MIC, hospital methicillin-resistant strains (MRSE); conditions: hospital MRSE strain S. epidermidis 469
[17] = tested on: S. epidermidis 511; assay: MIC, hospital methicillin-resistant strains (MRSE); conditions: hospital MRSE strain S. epidermidis 511
[18] = tested on: HaCaT (immortalized human keratinocytes); assay: Cytotoxicity, MTT assay; format: cell-based; conditions: normal cells, 72 h, mean SD
Experimental: as §1

[19] = tested on: S. aureus 496; assay: MIC, hospital methicillin-resistant strains (MRSA); conditions: hospital MRSA strain S. aureus 496
[20] = tested on: S. aureus 585; assay: MIC, hospital methicillin-resistant strains (MRSA); conditions: hospital MRSA strain S. aureus 585
[21] = tested on: S. aureus NCTC 4163; assay: MIC, twofold serial microdilution, standard strains; conditions: S. aureus NCTC 4163, standard strain
[22] = tested on: staphylococcal isolates; assay: MIC, standard staphylococcal strains; conditions: text summary of Table 4
[23] = biological target: T1, S. aureus DNA gyrase (Staphylococcus aureus, UniProt P0A0K8+P20831); assay: S. aureus DNA gyrase supercoiling assay; format: biochemical; conditions: pBR322 supercoiling, 30 min at 37 °C
T1 construct: purchased Inspiralis, Norwich, UK
T1 sequence (P20831 whole entry): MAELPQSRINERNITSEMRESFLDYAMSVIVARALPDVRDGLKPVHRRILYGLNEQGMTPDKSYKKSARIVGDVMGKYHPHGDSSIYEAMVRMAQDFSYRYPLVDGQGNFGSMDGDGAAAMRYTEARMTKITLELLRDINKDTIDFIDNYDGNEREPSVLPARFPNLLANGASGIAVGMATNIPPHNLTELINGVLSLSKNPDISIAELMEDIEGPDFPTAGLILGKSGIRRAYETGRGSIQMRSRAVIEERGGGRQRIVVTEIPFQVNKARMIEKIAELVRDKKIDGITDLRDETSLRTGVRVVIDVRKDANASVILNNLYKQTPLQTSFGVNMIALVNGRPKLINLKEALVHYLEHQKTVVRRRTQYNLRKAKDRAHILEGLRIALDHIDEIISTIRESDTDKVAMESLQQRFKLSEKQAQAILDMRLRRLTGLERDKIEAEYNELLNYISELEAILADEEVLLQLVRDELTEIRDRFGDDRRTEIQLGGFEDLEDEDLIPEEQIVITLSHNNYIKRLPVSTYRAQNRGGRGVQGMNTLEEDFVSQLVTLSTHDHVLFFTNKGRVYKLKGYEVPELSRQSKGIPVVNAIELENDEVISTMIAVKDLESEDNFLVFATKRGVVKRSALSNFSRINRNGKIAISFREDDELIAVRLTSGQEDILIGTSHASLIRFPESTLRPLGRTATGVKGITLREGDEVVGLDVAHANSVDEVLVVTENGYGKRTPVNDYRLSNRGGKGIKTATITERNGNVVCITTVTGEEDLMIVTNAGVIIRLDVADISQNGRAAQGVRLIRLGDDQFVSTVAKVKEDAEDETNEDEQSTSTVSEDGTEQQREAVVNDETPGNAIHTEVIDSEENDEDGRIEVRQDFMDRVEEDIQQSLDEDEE
T1 sequence (P0A0K8 whole entry): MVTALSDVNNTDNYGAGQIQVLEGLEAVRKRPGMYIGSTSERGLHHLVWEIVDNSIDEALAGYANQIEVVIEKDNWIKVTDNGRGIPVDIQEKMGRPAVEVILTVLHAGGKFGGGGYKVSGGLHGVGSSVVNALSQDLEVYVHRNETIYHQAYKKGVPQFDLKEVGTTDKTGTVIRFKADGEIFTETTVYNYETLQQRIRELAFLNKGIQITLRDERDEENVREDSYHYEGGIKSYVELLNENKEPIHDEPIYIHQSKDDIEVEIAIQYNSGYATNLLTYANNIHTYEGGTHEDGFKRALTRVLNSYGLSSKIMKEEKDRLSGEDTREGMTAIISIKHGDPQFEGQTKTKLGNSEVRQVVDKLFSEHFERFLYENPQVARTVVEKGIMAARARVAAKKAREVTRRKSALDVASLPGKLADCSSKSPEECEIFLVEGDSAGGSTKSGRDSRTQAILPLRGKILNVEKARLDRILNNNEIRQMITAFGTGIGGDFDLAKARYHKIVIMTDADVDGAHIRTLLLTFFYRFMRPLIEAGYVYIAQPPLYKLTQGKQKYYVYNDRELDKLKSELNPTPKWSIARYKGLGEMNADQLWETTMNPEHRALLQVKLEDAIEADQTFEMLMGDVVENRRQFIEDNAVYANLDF
Experimental: The assay was performed using a S. aureus DNA Gyrase Supercoiling kit (Inspiralis, Norwich, UK). The activity of DNA topoisomerase II was determined by measuring the conversion of relaxed pBR322 DNA to its supercoiled form. The reaction mixture contained 500 ng of mMpBR322 plasmid DNA and 1 U of enzyme and different concentrations of the compound in a total reaction volume of 30 µL. The mixture was incubated for 30 min at 37 °C. The reactions were terminated by adding an equal volume of STEB buffer (40% sucrose, 100 mM Tris-HCl pH 8, 1 mM EDTA, 0.5 mg/mL bromophenol blue), followed by extraction with 1 volume of chloroform/isoamyl alcohol (24:1). Then, 20 µL of the aqueous phase of each sample was loaded onto a 1% agarose gel. Electrophoresis was conducted in Tris-acetate-EDTA buffer for 3 h at 50 V. Gels were stained with ethidium bromide and visualized under UV light in a transilluminator (ChemiDoc MP, Bio-Rad, Hercules, CA, USA).

[24] = biological target: T2, S. aureus topoisomerase IV (Staphylococcus aureus, UniProt P0C1S7+P0C1U9); assay: S. aureus topoisomerase IV decatenation assay; format: biochemical; conditions: kDNA decatenation, 30 min at 37 °C
T2 construct: purchased Inspiralis, Norwich, UK
T2 sequence (P0C1S7 whole entry): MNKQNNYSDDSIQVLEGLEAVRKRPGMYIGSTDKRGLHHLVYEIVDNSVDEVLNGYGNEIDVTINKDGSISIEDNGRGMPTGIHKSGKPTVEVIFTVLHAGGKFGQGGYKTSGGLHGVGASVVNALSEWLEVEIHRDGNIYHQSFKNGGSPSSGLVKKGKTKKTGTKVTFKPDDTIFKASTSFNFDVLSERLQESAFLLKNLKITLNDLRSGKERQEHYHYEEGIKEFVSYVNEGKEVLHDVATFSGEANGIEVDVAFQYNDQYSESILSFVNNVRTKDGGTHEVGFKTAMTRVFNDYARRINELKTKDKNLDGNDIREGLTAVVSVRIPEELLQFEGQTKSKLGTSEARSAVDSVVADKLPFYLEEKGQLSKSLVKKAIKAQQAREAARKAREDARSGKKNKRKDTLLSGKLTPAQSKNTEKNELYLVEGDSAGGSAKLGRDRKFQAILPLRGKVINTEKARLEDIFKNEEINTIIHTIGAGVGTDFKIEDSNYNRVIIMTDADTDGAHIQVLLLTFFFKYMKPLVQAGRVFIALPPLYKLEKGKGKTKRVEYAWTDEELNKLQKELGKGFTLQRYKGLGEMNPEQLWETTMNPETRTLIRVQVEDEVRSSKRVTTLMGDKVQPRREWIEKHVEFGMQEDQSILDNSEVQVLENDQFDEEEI
T2 sequence (P0C1U9 whole entry): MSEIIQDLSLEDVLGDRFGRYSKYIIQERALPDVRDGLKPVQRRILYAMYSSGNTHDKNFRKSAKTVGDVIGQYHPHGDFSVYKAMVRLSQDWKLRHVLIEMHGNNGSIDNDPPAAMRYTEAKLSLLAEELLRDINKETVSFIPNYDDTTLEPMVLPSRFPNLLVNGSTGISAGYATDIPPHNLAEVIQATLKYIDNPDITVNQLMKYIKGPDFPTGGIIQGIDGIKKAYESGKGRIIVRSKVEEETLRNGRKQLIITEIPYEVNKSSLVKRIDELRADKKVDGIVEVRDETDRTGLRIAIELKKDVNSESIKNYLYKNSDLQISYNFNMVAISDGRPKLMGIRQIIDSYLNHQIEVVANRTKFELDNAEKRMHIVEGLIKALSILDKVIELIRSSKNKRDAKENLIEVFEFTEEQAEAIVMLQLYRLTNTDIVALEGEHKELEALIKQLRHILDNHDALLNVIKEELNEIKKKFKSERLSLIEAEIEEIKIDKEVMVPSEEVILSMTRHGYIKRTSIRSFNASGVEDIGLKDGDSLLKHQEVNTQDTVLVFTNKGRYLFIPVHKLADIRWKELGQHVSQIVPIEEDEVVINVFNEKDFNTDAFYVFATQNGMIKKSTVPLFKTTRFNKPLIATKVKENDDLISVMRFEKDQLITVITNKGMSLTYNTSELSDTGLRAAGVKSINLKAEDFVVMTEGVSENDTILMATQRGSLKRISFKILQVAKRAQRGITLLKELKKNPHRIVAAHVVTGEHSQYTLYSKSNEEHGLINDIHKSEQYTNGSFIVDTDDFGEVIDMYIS
Experimental: The assay was performed using a S. aureus topoisomerase IV decantation kit (Inspiralis, Norwich, UK). Kinetoplast DNA (kDNA) was the substrate for topoisomerase IV. Firstly, 1 U of topoisomerase IV decatenated 200 ng of kDNA, in the dedicated decantation assay buffer supplied by the manufacturer. […] The reactions were terminated by adding an equal volume of STEB buffer (40% sucrose, 100 mM Tris-HCl pH 8, 1 mM EDTA, 0.5 mg/mL bromophenol blue), followed by extraction with 1 volume of chloroform/isoamyl alcohol (24:1). Then, 20 µL of the aqueous phase of each sample was loaded onto a 1% agarose gel. Electrophoresis was conducted in Tris-acetate-EDTA buffer for 1.5 h at 80 V. Gels were stained with ethidium bromide and visualized under UV light in a transilluminator (ChemiDoc MP, Bio-Rad, Hercules, CA, USA).

[25] = tested on: SW480, SW620, and PC3; assay: Cytotoxicity, MTT assay, all cancer cell lines; format: cell-based, human; conditions: 72 h, read-out: IC50 towards all investigated cancer cells
Experimental: as §1

SMILES | MIC [1] | MIC [2] | MIC [3] | IC50 [4] | IC50 [5] | IC50 [6] | MIC [7] | MIC [8] | MIC [9] | MIC [10] | MIC [11] | MIC [12] | MIC [13] | MIC [14] | MIC [15] | MIC [16] | MIC [17] | IC50 [18] | MIC [19] | MIC [20] | also measured
FC(F)(F)c1cccc([N-]C(=S)Nc2cccc(Br)c2)c1.FC(F)(F)c1cccc([N-]C(=S)Nc2cccc(Br)c2)c1.[Cu+2] [Cu4, Copper(II) Complex with 1-(3-bromophenyl)-3-[3-(trifluoromethyl)phenyl] thiourea] | 8 µg/mL | 8 µg/mL | 4 µg/mL | 69.1 ± 1.8 µM | 70.1 ± 5.3 µM | 89.8 ± 2.6 µM | 8 µg/mL | 8 µg/mL | 8 µg/mL | 128 µg/mL | 8 µg/mL | 8 µg/mL | 8 µg/mL | 8 µg/mL | 8 µg/mL | 8 µg/mL | 8 µg/mL | 388 ± 4.4 µM | 8 µg/mL | 8 µg/mL | MIC [21]: 8 µg/mL; MIC, staphylococcal isolates [22]: 8 µg/mL
FC(F)(F)c1cccc([N-]C(=S)NCc2ccccc2)c1.FC(F)(F)c1cccc([N-]C(=S)NCc2ccccc2)c1.[Cu+2] [Cu3, Copper(II) Complex with 1-benzyl-3-[3-(trifluoromethyl)phenyl]thiourea] | 64 µg/mL | 64 µg/mL | 64 µg/mL | 44.8 ± 5.6 µM | 49.4 ± 2.4 µM | 38.3 ± 3.1 µM | 64 µg/mL | 64 µg/mL | 64 µg/mL | ≥256 µg/mL | 64 µg/mL | 64 µg/mL | 64 µg/mL | 64 µg/mL | 64 µg/mL | 64 µg/mL | 64 µg/mL | 65 ± 4.7 µM | 64 µg/mL | 64 µg/mL | MIC [21]: 64 µg/mL
CC(NC(=S)[N-]c1cccc(C(F)(F)F)c1)c1ccccc1.CC(NC(=S)[N-]c1cccc(C(F)(F)F)c1)c1ccccc1.[Cu+2] (racemic) [Cu2, Copper(II) Complex with 1-(1-phenylethyl)-3-[3-(trifluoromethyl)phenyl]thiourea] | 32 µg/mL | 16 µg/mL | 32 µg/mL | 23.3 µM | 89.7 ± 1.9 µM | 41.6 ± 4.3 µM | 16 µg/mL | 16 µg/mL | 16 µg/mL | ≥256 µg/mL | 16 µg/mL | 16 µg/mL | 8 µg/mL | 16 µg/mL | 16 µg/mL | 32 µg/mL | 16 µg/mL | 220 ± 3.4 µM | 16 µg/mL | 8 µg/mL | MIC [21]: 32 µg/mL
FC(F)(F)c1cccc([N-]C(=S)NCCc2ccccc2)c1.FC(F)(F)c1cccc([N-]C(=S)NCCc2ccccc2)c1.O.[Cu+2] [Cu1, Copper(II) Complex with 1-(2-phenylethyl)-3-[3-(trifluoromethyl)phenyl]thiourea] | 64 µg/mL | 128 µg/mL | 64 µg/mL | 62.6 ± 4.9 µM | 100 ± 3.6 µM | 68.7 ± 3.4 µM | 128 µg/mL | 64 µg/mL | 64 µg/mL | ≥256 µg/mL | 64 µg/mL | 64 µg/mL | 64 µg/mL | 64 µg/mL | 128 µg/mL | 64 µg/mL | 128 µg/mL | 421 ± 5.2 µM | 64 µg/mL | 64 µg/mL | MIC [21]: 64 µg/mL
O.O=[N+]([O-])c1cc(NC(=S)[N-]c2cccc(C(F)(F)F)c2)ccc1Cl.O=[N+]([O-])c1cc(NC(=S)[N-]c2cccc(C(F)(F)F)c2)ccc1Cl.[Cu+2] [Cu5, Copper(II) Complex with 1-(4-chloro-3-nitrophenyl)-3-[3-(trifluoromethyl)phenyl]thiourea] | 4 µg/mL | 4 µg/mL | 4 µg/mL | 19.5 ± 1.3 µM | 11.7 ± 0.9 µM | 14.8 ± 1.2 µM | 4 µg/mL | 2 µg/mL | 2 µg/mL | 128 µg/mL | 2 µg/mL | 2 µg/mL | 2 µg/mL | 2 µg/mL | 2 µg/mL | 4 µg/mL | 4 µg/mL | 134 ± 2.9 µM | 2 µg/mL | 4 µg/mL | IC50 ± S.E.M. for Gyrase [23]: 16.80 ± 0.75 µg/mL; IC50 ± S.E.M. for Topo IV [24]: 6.20 ± 0.50 µg/mL; IC50 [25]: 11.7 to 19.5 µM; MIC [21]: 4 µg/mL; MIC, staphylococcal isolates [22]: 4 µg/mL
